Reference: US20170313758A1, “Polypeptides for the Treatment of Angiogenesis or Lymphangiogenesis-Related Diseases” (INSERM (Institut National de la Sante et de la Recherche …, priority 2014, published 2017)
Each block holds one molecule with its values, some of them ahead of it.

Legend:
[1] = system: ERK phosphorylation; assay: ERK activation signalling (ERK phosphorylation) in treated cells; assay type: cell-based; conditions: FIG. 16
Experimental: (§1) No effect on ERK phosphorylation could be observed when the cells were treated with PC (FIGS. 15 and 16).

[2] = target: T1, EMMPRIN/VEGFR-2 interaction (Homo sapiens, UniProt P35968); assay: Immunoprecipitation of EMMPRIN/VEGFR-2 interaction in treated cells; assay type: cell-based; conditions: FIG. 15
T1 construct: endogenous in cells; HMEC and M10 are the cells used in the neighbouring peptide experiments
T1 sequence (P35968 20-1356): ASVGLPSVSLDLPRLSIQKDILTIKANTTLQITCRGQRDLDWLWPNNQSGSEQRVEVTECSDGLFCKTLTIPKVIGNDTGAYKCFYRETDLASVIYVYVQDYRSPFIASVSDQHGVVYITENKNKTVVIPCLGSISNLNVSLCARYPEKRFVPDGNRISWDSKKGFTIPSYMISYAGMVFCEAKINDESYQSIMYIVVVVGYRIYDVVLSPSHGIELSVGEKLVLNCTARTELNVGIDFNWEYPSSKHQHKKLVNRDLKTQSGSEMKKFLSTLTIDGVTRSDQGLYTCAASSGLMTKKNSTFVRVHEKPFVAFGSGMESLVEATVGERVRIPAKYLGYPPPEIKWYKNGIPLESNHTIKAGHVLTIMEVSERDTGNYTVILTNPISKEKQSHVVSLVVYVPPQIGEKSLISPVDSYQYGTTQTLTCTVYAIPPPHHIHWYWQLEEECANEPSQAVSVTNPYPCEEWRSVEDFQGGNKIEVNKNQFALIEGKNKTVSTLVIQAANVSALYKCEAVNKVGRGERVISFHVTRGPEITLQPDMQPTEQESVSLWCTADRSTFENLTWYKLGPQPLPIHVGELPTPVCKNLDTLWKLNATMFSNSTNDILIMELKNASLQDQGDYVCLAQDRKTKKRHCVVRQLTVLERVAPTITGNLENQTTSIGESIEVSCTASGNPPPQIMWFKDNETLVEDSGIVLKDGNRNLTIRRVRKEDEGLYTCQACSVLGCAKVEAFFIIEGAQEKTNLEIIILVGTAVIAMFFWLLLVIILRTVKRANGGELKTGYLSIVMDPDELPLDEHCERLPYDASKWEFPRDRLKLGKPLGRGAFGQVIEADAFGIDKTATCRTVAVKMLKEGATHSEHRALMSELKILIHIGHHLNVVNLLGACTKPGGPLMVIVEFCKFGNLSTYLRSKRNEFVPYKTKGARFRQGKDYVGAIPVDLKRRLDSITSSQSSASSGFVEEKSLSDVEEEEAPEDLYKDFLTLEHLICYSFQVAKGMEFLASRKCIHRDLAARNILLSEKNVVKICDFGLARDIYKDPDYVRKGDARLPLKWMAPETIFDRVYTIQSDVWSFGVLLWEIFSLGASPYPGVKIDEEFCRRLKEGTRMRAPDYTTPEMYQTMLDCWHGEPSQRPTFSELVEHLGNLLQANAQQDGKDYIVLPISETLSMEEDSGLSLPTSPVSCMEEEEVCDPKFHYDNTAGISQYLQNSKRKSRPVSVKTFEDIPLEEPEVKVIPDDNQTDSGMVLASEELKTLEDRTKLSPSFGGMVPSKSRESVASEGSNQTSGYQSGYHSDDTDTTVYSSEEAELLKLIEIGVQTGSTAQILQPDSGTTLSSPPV
Experimental: For immunoprecipitation, cell lysates were incubated with antibodies against targeted proteins and Protein G-sepharose beads (Sigma). Immunoprecipitated proteins were subjected to sodium dodecyl sulphate-polyacrylamide gel electrophoresis then transferred to Nitrocellulose membranes and probed with anti-EMMPRIN mAb (555961, BD-Pharmingen), anti-VEGF (C-1) mAb (Sc-7269, Santa Cruz), anti-VEGFR-2 rabbit pAb (Sc-504, Santa Cruz-) or anti-pVEGFR-2 (Tyr 1175) rabbit mAb (2478, Cell Signaling). The proteins were visualized with ECL reagent (Pierce), and their expression was normalized relative to total cell lysate protein concentration.
as §1

[3] = system: HMEC endothelial cells; assay: MTT assay, proliferation of HMEC endothelial cells; assay type: cell-based, human; conditions: treatment for 48 h, FIG. 13
Experimental: (§2) Human microvascular endothelial (HMEC) cells line derived from dermal microvasculature (T. Lawley, Emory University, Atlanta, GA) were maintained in MCDB-131 medium (Gibco, Invitogen) with 10% fetal bovine serum (FBS) (Invitrogen), 2 ml glutamine (Invitrogen), 10 ng/ml endothelial growth factor (Upstate Biotechnology/Millipore), and 1 μg/ml hydrocortisone (Sigma-Aldrich). Primary melanoma M10 cells, established from patient primary nodular melanoma were maintained in RPMI medium (Gibco, Invitogen) with 10% FBS, Hepes 1 M, pyruvate Nas, and glutamine (Invitrogen). Human breast carcinoma MDA-MB-231 cells were maintained in Dulbecco's modified Eagle's medium (DMEM) (Gibco, Invitogen) with 10% FBS (Invitrogen) and 2m1 glutamine (Invitrogen). Melanoma BLM cells (American Type Culture Collection (ATCC Manassas, Va.)) were maintained in DMEM containing 4.5 g/l glucose, 10% FBS, 100 U/ml penicillin and […] streptomycin. HEK293T cells (ATCC) were cultured in DMEM medium (Gibco, Invitogen) supplemented with 10% FBS (Invitrogen), 100 U/ml penicillin, 100 mg/ml streptomycin and 2 ml glutamine (Invitrogen).
As VEGFR-2 has been implicated in regulation of endothelial cells migration/invasion and proliferation processes, we first investigated the effect of EMMPRIN inhibitor peptide (PI) on endothelial cell proliferation. […]

[4] = system: M10 melanoma cells; assay: Modified Boyden chamber invasion assay, M10 melanoma cells; assay type: cell-based, human; conditions: 500 nM, compared to control PC-treated cells, mean, FIG. 14
Experimental: as §2, with “HEK293T cells (ATCC) were cultured in DMEM medium (Gibco, Invitogen) supplemented with 10% FBS (Invitrogen), 100 U/ml penicillin, 100 mg/ml streptomycin and 2 ml glutamine (Invitrogen).” left out
The in vitro migration (on uncoated filters) and invasion (on coated filters with matrigel, BD Bioscience) were performed using a modified Boyden chamber in 24-well plates and […] pore filter inserts (BD Bioscience). After 24h of incubation, cells were fixed, stained with crystal violet 0.5% and counted under a light microscope. […]

[5] = target: T2, VEGFR-2 (human, UniProt P35968 20-1356); assay: VEGFR-2 immunoprecipitation, EMMPRIN western blot, transfected BLM-EMMPRIN-miRNA cells
T2 construct: Endogenous receptor of human cells (HMEC, M10, MDA-MB-231, BLM); the whole entry is named; also called KDR
T2 sequence (P35968 20-1356 limits assumed): as the sequence (P35968 20-1356) above
Experimental: For immunoprecipitation, cell lysates were incubated with antibodies against targeted proteins and Protein G-sepharose beads (Sigma). […] The proteins were visualized with ECL reagent (Pierce), and their expression was normalized relative to total cell lysate protein concentration.

Molecule: PI: EMMPRIN peptide inhibitor (PI); sequence not specified in the text
- ERK phosphorylation [1]: significant decrease
- EMMPRIN/VEGFR-2 interaction ([2]; 100 nM): able to decrease EMMPRIN/VEGFR-2 interaction
- EMMPRIN/VEGFR-2 interaction ([2]; 500 nM): able to decrease EMMPRIN/VEGFR-2 interaction
- inhibition of proliferation of HMEC cells [3]: approx. 50%
- decrease in M10 cell invasion capacity [4]: 60%

- binding result [5]: binds
B1: EMMPRIN D136A (receptor)
chain: AAGTVFTTVEDLGSKILLTCSLNDSATEVTGHRWLKGGVVLKEDALPGQKTEFKVDSDDQWGEYSCVFPPEPMGTANIQLHGPPRVKAVKSSEHINEGETAMLVCKSESVPPVTAWAWYKITDSEDKALMNGSESRFFVSSSQGRSELHIENLNMEADPGQYRCNGTSSKGSDQAIITLRVCSHLAALWPFLGIVAEVLVLVTIIFIYEKRRKPEDVLDDDDAGSAPLKSSGQHQNDKGKNVRQRNSS
notes: Full-length EMMPRIN cDNA mutant transfected into BLM-EMMPRIN-miRNA cells; also called control D136A; negative control D136A mutant
